Numbers after ± are expanded uncertainties.
Assay: wn = mass fraction of the nth substance listed
Conditions: Liquid, Vibrating tube method, w1 = 0.45

CN(CCO)CCO [N-methyldiethanolamine] + O
mass density (303.15 K): 1037.2 ± 5 kg/m3 | mass density (323.15 K): 1024.8 ± 5 kg/m3 | mass density (343.15 K): 1011.5 ± 5 kg/m3 | mass density (363.15 K): 996.4 ± 5 kg/m3
